Assay results: US11141406B2, “Pharmaceutical compounds” (REVIRAL LIMITED, priority 2017, dated 2021)

What was measured:
RSV A2 VR-1540 = assay: RSV plaque reduction assay, typical conditions (HEp-2 cells); type: cell-based; details: human respiratory syncytial virus; for IC90: typical protocol, read-out: RSV Plaque Reduction Assay Strain A2 IC90; for IC50: †: typical protocol, n = 1, read-out: RSV Plaque Reduction Assay Strain A2 IC50
Description: The plaque reduction assay was typically performed as follows. HEp-2 cells (ATCC, CCL23) were passaged in flasks and seeded in 96-well plates in DMEM containing antibiotics and supplemented with 10% FBS. During inoculation and subsequent incubation, cells were cultured in DMEM containing 3% FBS. 100 plaque forming unit (PFU)/well of RSV (RSV A2 VR-1540) was mixed with ten serial dilutions of compound. Subsequently, 100 μL of the virus/compound mixtures was added to confluent HEp-2 cell monolayers. The cells and virus/compound mixtures were incubated at 35° C. in a humidified 5% CO2 incubator for 1 day.
Cells were washed twice with PBS before adding 50% v % v EtOH/MeOH, and then stored at −20° C. On the day of the staining, fixative was first removed from the plates. Plates were washed 3× with PBS. A pre-titrated amount of the primary antibody was added in 60 μL PBS/2% milk powder, and plates incubated for 1 h at rt. The plates were washed 3× with PBS/0.05% Tween20 before addition of goat anti-mouse horse radish peroxidase in 60 μL PBS/2% milk powder, and incubated for 1 h at rt. Following three wash steps with PBS/0.05% Tween20, 60 μL ready-to-use TrueBlue was added and plates were incubated at it for 10-15 min before adding MilliQ water. Plates were washed once with water, incubated for 30-60 min and after removal of water, air-dried in the dark.
(§1) Plates were scanned and analyzed using the Immunospot S6 UV analyzer, which is equipped with BioSpot analysis software for counting immunostained plaques (virospots). Plaque counts were used to calculate % infection relative to the mean of the spot count (SC) in the virus control wells for RSV. IC50/IC90 values were calculated as 50% or 90% reduction in signal, respectively, by interpolation of inhibition curves fitted with a 4-parameter nonlinear regression with a variable slope in GraphPad 5.0 (Prism). Alternatively, where noted the plaque reduction assay was performed as follows. Hep G2 cells (ECACC, 85011430) were passaged in flasks and seeded in 12-well plates in DMEM containing antibiotics and supplemented with 10% FBS, 24 h prior to inoculation. During inoculation and subsequent incubation, cells were cultured in DMEM containing 2% FBS. 75 plaque forming unit (PFU)/well of RSV (RSV A2, 0709161v) was mixed with 8 serial dilutions of compound. Subsequently, 200 μL of the virus/compound mixtures was added to confluent Hep G2 cell monolayers, for a 2 h infection, with manual shaking every 15 min. Infectious supernatant was then removed and replaced with 2 mL of overlay, comprising 4 parts of DMEM+2% FBS and 1 part 4% CMC, with 0.25% DMSO. The cells were incubated at 37° C. in a humidified 5% CO2 incubator for 5 days.

RSV A2, 0709161v = assay: RSV plaque reduction assay, alternative conditions (Hep G2 cells); type: cell-based; details: human respiratory syncytial virus, HepG2, mean of at least 2 independent experiments, read-out: RSV Plaque Reduction Assay Strain A2 IC50
Description: as §1
Overlay was removed, and cells were washed with PBS before fixing with a mixture of 75% acetone 25% methanol for 3 minutes and replacing with fresh PBS. […] Staining was carried out whilst shaking at 37° C. First the plates were blocked with 500 uL PBS-T/2% milk powder per well, for 1 hr. This was then replaced with 250 uL PBS-T/2% milk powder containing a pre-titrated amount of the primary antibody (ab1128), for 90 min. The plates were washed 3×5 min with PBS-T, before addition of rabbit anti-goat horse radish peroxidase (AP106P) in 250 μL PBS-T/2% milk powder, and incubated for 1 hr. […]
Plates were scanned and analysed using the Immunospot S6 Macro analyzer, which is equipped with BioSpot analysis software for counting immunostained plaques. […]

Compound	IC90 (RSV A2 VR-1540)	IC50 (RSV A2 VR-1540)	IC50 (RSV A2, 0709161v)
CS(=O)(=O)CCCn1c(CN2C(=O)C(F)(F)c3ccccc32)nc2cc(Cl)ccc21 [Compound 5, 1-{[5-Chloro-1-(3-methanesulfonylpropyl)-1H-1,3-benzodiazol-2-yl]methyl}-3,3-difluoro-2,3-dihydro-1H-indol-2-one]	4.4 nM	1.4 nM	
CCS(=O)(=O)N1CCC(n2c(CN3C(=O)C(F)(F)c4ccccc43)nc3cc(Cl)ccc32)CC1 [Compound 9, 1-({5-Chloro-1-[1-(ethanesulfonyl)piperidin-4-yl]-1H-1,3-benzodiazol-2-yl}methyl)-3,3-difluoro-2,3-dihydro-1H-indol-2-one]			12.6 nM
O=C1N(Cc2nc3cc(Cl)ccc3n2C2CCOCC2)c2ccccc2C1(F)F [Compound 10, 1-{[5-Chloro-1-(oxan-4-yl)-1H-1,3-benzodiazol-2-yl]methyl}-3,3-difluoro-2,3-dihydro-1H-indol-2-one]	53 nM	6.4 nM	
CC(C)CCn1c(CN2C(=O)C(F)(F)c3ccccc32)nc2cc(CN)ccc21 [Compound 13, 1-{[5-(Aminomethyl)-1-(3-methylbutyl)-1H-1,3-benzodiazol-2-yl]methyl}-3,3-difluoro-2,3-dihydro-1H-indol-2-one]			4.1 nM
